Assay results published in patent US9512180B2, “Compstatin analogs” (THE REGENTS OF THE UNIVERSITY OF CALIFORNIA, priority 2012, dated 2016).
Bridge positions count the residues as written; N and C are the ends. Peptide text beside a SMILES is read from it.

Tested on: complement system
Assay: Preliminary ELISA-based complement system inhibition assays, human serum
Format: biochemical
Settings: preliminary data
Text: For some of the peptides studied here, W1, W13, R1, and S-1S0, there is experimental evidence for inhibitory activity against hC3. […] The structural rationale was that the positively charged backbone amino group was disrupting the hydrophobic cluster at the termini (spanning residues 11-C2-V3-V4/C12/T13 of native compstatin), which was deemed necessary for binding and activity before the availability of the structure of the C3c-W4A9 complex, and that upon removal of the positive charge by acetylation the hydrophobic cluster was fortified and contributed to the 3-fold increase in activity. […] The peptide with the diserine extension is expected to be active, as the diserine was present at the N-terminus of the original 32-amino acid peptide that was identified in the phage-display and a subsequent study.

Q: With `CC(=O)N[C@@H](CCCNC(=N)N)C(=O)N[C@H]1CSSC[C@@H](C(=O)N[C@H](C(N)=O)[C@@H](C)O)NC(=O)[C@H](CCCNC(=N)N)NC(=O)[C@H](Cc2c[nH]cn2)NC(=O)[C@H](C)NC(=O)CNC(=O)[C@H](Cc2c[nH]c3ccccc23)NC(=O)[C@H](CC(=O)O)NC(=O)[C@H](CCC(N)=O)NC(=O)[C@H](Cc2c[nH]c3ccccc23)NC(=O)[C@H](C(C)C)NC1=O` [Peptide I, Ac- RCV WQDWGA HRCT-NH2] (Ac-RCVWQDWGAHRCT-NH2; disulfide 2-12) as the compound, how does the “inhibitory activity in human serum (in words)” value read?
A: Its value is “higher than those of native compstatin and slightly lower than those of the W4A9 analog”.
